# Data taken from patent publication US20250302903A1, “COMPOSITION FOR PREVENTION AND TREATMENT OF MUSCLE DISEASE, CONTAINING MAGNOLIA OFFICINALIS EXTRACT AS ACTIVE INGREDIENT” (TWINPIGBIOLAB INC., priority 2022, published 2025).
# Key:
# [1] = test system: cisplatin-induced sarcopenia mouse model; assay: Leg weight and tibialis anterior (TA) muscle mass on day 42, cisplatin-induced skeletal muscle wasting; assay type: in vivo, mice (C57BL/6); conditions: vs cisplatin group
# Protocol: In order to confirm an effect of a Magnolia officinalis extract on cisplatin-induced skeletal muscle wasting, the leg weight and tibialis anterior (TA) muscle mass of each group were measured on day 42 of the experiment.
# [2] = test system: cisplatin-induced sarcopenia mouse model; assay: Grip strength (forelimb and all limbs) by digital force gauge; assay type: in vivo, mice (C57BL/6); conditions: M.C 100 and 200 mg/kg; magnolol 10 mg/kg i.p.
# Protocol: To determine the effect of the Magnolia officinalis extract on cisplatin-induced grip strength reduction, muscle strength of all limbs and muscle strength of forelimb were measured using a digital force gauge (DS2-5N; IMADA Inc., Northbrook, IL, USA). The muscle strength was measured by pulling the mouse's tail downward 5times and recording the peak tension when the mouse released its foot, and repeated 3 times at 10-minute intervals, and the average of 5 values was used for calculation.
# [3] = test system: cells expressing both CD68 and IGF-1; assay: Immunohistochemistry of CD68 and IGF-1 in TA muscle sections; assay type: in vivo, mice (C57BL/6); conditions: per image area
# Protocol: It was confirmed whether […], which shifted the polarization of a macrophage phenotype from M2a to M2c (macrophages involved in extracellular matrix remodeling and muscle healing), and the number of macrophages were affected in skeletal muscle by administration of a Magnolia officinalis extract. Specifically, the TA muscle tissue sections of Example 4-3 were incubated overnight with a primary antibody, rat anti-mouse CD68 antibody (1:250; MCA1957GA; Bio-Rad, Contra Costa County, CA, USA) and rabbit anti-mouse IGF-1 antibody (1:500; 40657; Abcam, Cambridge, UK), and then incubated for 30 minutes with a secondary antibody, Alexa Fluor 488-conjugated goat anti-rat immunoglobulin IgG (A11006; Invitrogen, Carls-bad, CA, USA) and Alexa Fluor 594-conjugated goat anti-rabbit IgG (A32740; Invitrogen, Carlsbad, CA, USA). Thereafter, the sections were mounted using mounting media containing 4′,6-diamidino-2-phenylindole (DAPI) (H-1200, Vector, Torrance, CA, USA), and then imaged under a confocalator microscope (FV10C-PSU; Olympus Corporation, Tokyo, Japan). In the captured images, the numbers of IGF-I (red), CD68 (macrophage) (green), and DAPI (blue) positive cells per image area were measured in at least five random fields.
# [4] = test system: cisplatin-induced sarcopenia mouse model
# Protocol: Specifically, mice (C57BL/6, 7 to 8 weeks old) (Jackson Laboratories, Raon Bio, Gyeonggi) were randomly caged and raised in a regulated environment with free access to food and water with a 12-hour light/dark cycle, and then on days 1 to 5 and days 26 to 30, cisplatin (Sigma-Aldrich, P4394; St. Louis, MO, USA) (2.5 mg/kg) dissolved at 1 mg/mL in physiological saline was injected intraperitoneally once daily (sarcopenia mouse model), M.C (50, 100 and 200 mg/kg) were administered orally every 3 days (total of 12 times).
# [5] = test system: mouse colon cancer cell line CT26; assay: Anti-tumor activity of cisplatin in the CT26 colon cancer-bearing mouse model; assay type: in vivo; conditions: cisplatin alone; CT26 s.c. 3×10^5 per mouse
# Protocol: To confirm whether administration of the Magnolia officinalis extract interfered with the anti-tumor activity of cisplatin, a mouse colon cancer cell line CT26 (Korean Cell Line Bank, 80009; Seoul, Korea) was injected subcutaneously at 3×10^5 per mouse to fabricate a colon cancer-bearing mouse model, and then treated with cisplatin or cisplatin+Magnolia officinalis extract (200 mg/kg), and the size (volume) and weight of tumor were measured every 3 days.
SMILES,TA muscle mass reduction induced by cisplatin [1],leg weight reduction induced by cisplatin [1],pulling force power (grip strength) compared to the cisplatin administered group [2],number of cells expressing both CD68 and IGF-1 [3],"cisplatin-induced rapid weight loss (body weight, A of FIG. 2) ([4]; M.C 50, 100 and 200 mg/kg orally every 3 days (12 times), magnolol 10 mg/kg i.p. every 3 days, vs CIS+PBS)",changes in weight on the last and first days (B of FIG. 2) ([4]; M.C orally or magnolol 10 mg/kg i.p. vs cisplatin group),tumor growth (size and weight) [5]
C=CCc1ccc(O)c(-c2cc(CC=C)ccc2O)c1 [magnolol],significantly alleviated,significantly alleviated,significantly increased,increased,significantly alleviated,significant reduction in weight loss,–
N.N.[Cl][Pt][Cl] [cisplatin],–,–,–,–,–,–,significantly reduced tumor growth
